From patent US20240174641A1, “HETEROCYCLIC COMPOUNDS CAPABLE OF […]” (Boehringer Ingelheim International GmbH, priority 2022, published 2024)

Columns and labels:
STING = STING (Canis lupus familiaris, UniProt A0A8I3MH52); assay: Dog whole blood (dWB) assay, IFNb secretion by ELISA; format: cell-based; details: canine Interferon-beta (IFNb) ELISA, 4 h incubation at 37° C.
Procedure: For the detection of STING activation in physiological environment dog whole blood (dWB) was stimulated by the cyclic dinucleotide cGAMP or a test compound. Pathway activity was monitored by measuring the IFNb production.
Compounds were delivered as 10 mM DMSO solution, diluted and transferred by using an Echo acoustic dispenser to the 384 well assay plate (Greiner #781182), pre-filled with 10 μl 1×HBSS in each well (10×HBSS (+Ca/+Mg), #14065-049, Gibco). Typically, 8 concentrations were used with the highest concentration at 10 μM in the final assay volume followed by approximately 1:4 dilution steps. DMSO concentration was set to 0.1% in the final assay volume. The 384-well assay plate contained 20 test compounds and DMSO in control and cGAMP standard wells. The dog whole blood was collected as Na-Citrate blood (e.g., 3.8% in Monovettes from Sarstedt) and kept at 4° C. overnight until use in the assay. 80 μl of the whole blood samples were transferred to each well of the 384-well assay plates filled with compound/1×HBSS. Blood plates were kept at room temperature for 60 minutes and continuous shaking with 450 rpm, covered with the lid, but not sealed. A 10×cGAMP assay solution was diluted from a 2 mM stock solution in 1×HBSS immediately before use at room temperature. 10 μl of the 10×cGAMP/HBSS were added to the high control wells, whereas HBSS only was added to all compound and low control wells. After covering assay plates with the lid, blood plates were kept for a 4 h incubation at 37° C. in the incubator, without shaking. For the detection of IFNb in dog plasma the ELISA Kit for Canine Interferon Beta (Biotrend #SEA222Ca) was used. Whole blood assay plates were centrifuged at 1000 g for 10 minutes at 8° C. […] was transferred with a 96 well pipetting robotics from the 384 well whole blood plate to the corresponding 96 well ELISA plate, pre-filled with 60 μl assay diluent in each well. Plates were sealed with microplate seals and kept at 4° C. overnight again. ELISA plates were brought to room temperature, followed by a 1 h incubation at 37° C. in the incubator. Detection Reagent A working solution was prepared by diluting Detection Reagent A 1:100 in Assay Reagent A. Liquid was then removed from the 96 well ELISA plate to add 100 μL Detection Reagent A working solution to each well. ELISA plates were covered with the plate sealer and incubated for 1 hour at 37° C. in the incubator. The 1× Wash buffer was prepared by diluting the 30× Wash Buffer Concentrate in H2O. Detection Reagent B working solution was prepared by diluting Detection Reagent B 1:100 in Assay Reagent B. The ELISA plates were washed three times with 350 μl wash buffer and afterwards inverted and blotted against absorbent paper to remove any liquid. 100 μL of Detection Reagent B working solution was added to each well of the ELISA plates, which are then covered with the plate sealer and incubated for 30 minutes at 37° C. in the incubator. After incubation the ELISA assay plates were washed five times with 350 μl wash buffer and were again inverted and blotted against absorbent paper to remove any remaining liquid. 90 μL of TMB Substrate was added to each well of the ELISA plates, which were then covered with the plate sealer and incubated for 15 minutes at 37° C. in the incubator. The reaction was stopped by adding 50 μL stop solution and absorbance was measured at 450 nm immediately.
For data evaluation and calculation, % control calculation of each well was based on the mean of high (cGAMP stimulated control) and mean of low (unstimulated control) controls by using the following standard 4 parameter logistic regression formula:
[y=(a−d)/(1+(x/c)^b)+d] • a=low value, • d=high value, • x=conc M, • c=EC50 M, • b=slope. Dog Liver Microsome (dLM) Assay

dog STING (dSTING) = assay: Dog differential scanning fluorimetry (DSF) assay, thermal shift of dog STING protein; format: binding; details: DSF (dDSF); 100 μM compound, 3 μM dog STING protein; Tm with ligand minus Tm of protein alone
Source text: The protein used for the biophysical experiments was a recombinant dog STING protein comprising its cytosolic cGAMP binding ectodomain. A codon optimized DNA sequence (for expression in Escherichia coli) encoding amino acid residues 149 to 375 of dog STING was synthesized by GeneArt (Regensburg, Germany) and inserted into a pET17b E. coli expression vector. The protein construct encodes an N-terminal 8×His-tag followed by tobacco etch virus protease (TEV) cleavage site and the above STING gene sequence. The resulting protein sequence for the used dog STING protein (SEQ ID No. 1) is listed below:
For expression of the above recombinant dog STING, the construct was transformed into E. coli BL21 DE3 strain and grown in shake flasks in LB-medium at 15° C. Expression was induced by addition of isopropyl β-D-1-thiogalactopyranoside to a final concentration of 1 mM and cultures shaken overnight. Cell pellets were centrifuged and stored at −70° C. until further use. Protein was purified by cell thawing in lysis buffer (20 mM TRIS-HCl, pH 8, 500 mM NaCl, 1 mM DTT, 0.5 mg/ml lysozyme, Complete Protease Inhibitor (Roche) and DNase (Roche)), followed by metal affinity purification using Ni-NTA resins and elution buffer consisting of 20 mM TRIS-HCl, pH 8, 500 mM NaCl, 1 mM DTT, 300 mM imidazole. Cleavage of the His-Tag using TEV-protease took place during dialysis in size exclusion buffer (20 mM TRIS-HCl, pH 8, 100 mM NaCl, 1 mM DTT) over night. To further purify the target protein a reverse Nickel affinity column was used and the flow through was applied to a size exclusion chromatography. The peak fraction was collected and concentrated to 5 mg/mL.
Dye fluorescence is quenched in aqueous environment and increases upon association of the dye with the hydrophobic parts of the unfolding protein. […] The inflection point of the curve represents the “melting” temperature of the protein (Tm) which is calculated numerically using the Boltzmann equation.
The thermal stability of the dog STING protein was measured in assay buffer containing 20 mM Tris, 150 mM NaCl at pH7.5. The assay uses 384-Well qPCR Plates (Catalog #781358, BRAND), Microseal® ‘B’ Adhesive Seals for PCR Plates (Catalog #MSB-1001, BIO-RAD) and was run on a CFX384 Real-Time System (Bio-Rad). A DMSO stock solution of SYPRO orange (SIGMA 55692-500UL) was prepared. Compound stock solutions (10 mM in DMSO) were diluted 1:2 in DMSO to an intermediate compound concentration of 5 mM and then further diluted 1:40 in assay buffer resulting in a compound concentration of 125 μM and 2.5% DMSO. Fluorescent dye stock solution (5000×SYPRO Orange) was then mixed with target protein and buffer to a concentration of 15 μM Protein and 25×SYPRO Orange. 2 μl of this protein-dye-mixture was added to 8 μl compound solution. Final volume was 10 μL. 3-6 well positions were used as negative control (protein with 2% DMSO). The plates were prepared for duplicate measurement and centrifuged for 2 min at 1000 g. In the measurement, 160 cycles of 0.5° C. were used (temperature ramp 15 s/cycle, 15° C. to 95° C.).
Final Assay concentrations for compound characterization were 100 μM compound, 3 μM target protein, 5×SYPRO Orange, and 2% DMSO in 10 μl. All dispensing steps were performed using a HamiltonStar pipetting robot (Hamilton).
Dissociation curves were processed in Bio-Rad CFX Manager. Peak type was set to “negative”. Compound codes for screen were assigned in the plate layout.
Two replicates of TM measurements were averaged, and the standard deviation was calculated. In cases of SD>1.5° C. the measurement was repeated.
The melting point (Tm) obtained for STING protein alone was subtracted from T obtained for protein incubated with ligand to generate ΔTm values.

Chain of STING (A0A8I3MH52 1-374): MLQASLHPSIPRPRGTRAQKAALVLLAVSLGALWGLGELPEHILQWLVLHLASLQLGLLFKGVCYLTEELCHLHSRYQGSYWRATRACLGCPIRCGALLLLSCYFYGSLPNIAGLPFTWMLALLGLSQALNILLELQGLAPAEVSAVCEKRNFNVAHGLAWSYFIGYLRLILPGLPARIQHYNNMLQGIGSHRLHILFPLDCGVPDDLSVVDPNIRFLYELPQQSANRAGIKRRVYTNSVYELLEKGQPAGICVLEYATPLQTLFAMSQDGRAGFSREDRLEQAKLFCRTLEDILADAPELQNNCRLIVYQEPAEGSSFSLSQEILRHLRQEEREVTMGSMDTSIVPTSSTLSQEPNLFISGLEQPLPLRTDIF

Row | Compound | EC50 (STING) [nM] | Delta TM (dog STING (dSTING)) [°C]
1 | Cc1cccc2c(-c3ccc(F)c4nn(C)cc34)nn(-c3ccc(N4C[C@@H]5[C@H](C4)[C@H]5C(=O)O)nc3)c12 [Example 3, (1R,5S,6R)-3-(5-{7″-Fluoro-2″,7-dimethyl-1H,2″H-[3,4″-biindazol]-1-yl}pyridin-2-yl)-3-azabicyclo[3.1.0]hexane-6-carboxylic acid] | 730 | 32.2
2 | Cc1cc(F)cc2c(-c3ccc(F)c4nn(C)cc34)nn(-c3ccc(N4C[C@@H]5[C@H](C4)[C@H]5C(=O)O)nc3)c12 [Example 12, (1R,5S,6R)-3-(5-{5,7″-Difluoro-2″,7-dimethyl-1H,2″H-[3,4″-biindazol]-1-yl}pyridin-2-yl)-3-azabicyclo[3.1.0]hexane-6-carboxylic acid] | 609 | 21.7
3 | Cc1cccc2c(-c3c(F)ccc4nn(C)cc34)nn(-c3ccc(N4CC[C@H](CC(=O)O)C4)nc3)c12 [Example 25, 2-[(3R)-1-(5-{5″-fluoro-2″,7-dimethyl-1H,2″H-[3,4″-biindazol]-1-yl}pyridin-2-yl)pyrrolidin-3-yl]acetic acid] | 283 | 37.0
4 | Cc1c(F)ccc2c(-c3c(F)cc(F)c4nn(C)cc34)nn(-c3ccc(N4CCC(C(=O)O)CC4)nc3)c12 [Example 70, 1-(5-{5″,6,7″-trifluoro-2″,7-dimethyl-1H,2″H-[3,4″-biindazol]-1-yl}pyridin-2-yl)piperidine-4-carboxylic acid] | 296 | 34.5
5 | Cc1cccc2c(-c3cccc4nn(C)c(F)c34)nn(-c3ccc(N4CC5CCC4CC5C(=O)O)nc3)c12 (single isomer, unassigned) [Example 20-4, 2-(5-{3'-fluoro-2',7-dimethyl-1H,2'H-[3,4'-biindazol]-1-yl}pyridin-2-yl)-2-azabicyclo[2.2.2]octane-5-carboxylic acid] | 207 | 36.9
6 | CC(=O)N1CCN(c2ccc(-n3nc(-c4c(F)cc(F)c5nn(C)cc45)c4cc(F)cc(C)c43)cn2)CC1 [Example 68] | 106 | 28.5
7 | Cc1cccc2c(-c3cccc4nn(C)c(F)c34)nn(-c3ccc(N4CCOC(CC(=O)O)C4)nc3)c12 (single isomer, unassigned) [Example 72-3] | 5230 | 28.5
8 | Cc1cccc2c(-c3ccc(F)c4nn(C)c(F)c34)nn(-c3ccc(N4CC[C@@H](CC(=O)O)C4)nc3)c12 [Example 54, 2-[(3S)-1-(5-{3″,7″-difluoro-2″,7-dimethyl-1H,2″H-[3,4″-biindazol]-1-yl}pyridin-2-yl)pyrrolidin-3-yl]acetic acid] | 261 | 30.0
9 | Cc1cccc2c(-c3cccc4nn(C)c(F)c34)nn(-c3ccc(N4CCOC(CC(=O)O)C4)nc3)c12 (single isomer, unassigned) [Example 72-1] | 810 | 30.0
10 | CC(=O)N1CCN(c2ccc(-n3nc(-c4c(Cl)ccc5nn(C)cc45)c4cccc(C)c43)cn2)CC1 [Example 78] | 817 | 18.4
11 | Cc1cccc2c(-c3c(F)cc(F)c4nn(C)cc34)nn(-c3ccc(N4CC5CCC4CC5C(=O)O)nc3)c12 (single isomer, unassigned) [Example 48-4] | 169 | 36.1
12 | Cc1cc(F)cc2c(-c3c(F)cc(F)c4nn(C)cc34)nn(-c3ccc(N4CCC(C(=O)O)CC4)nc3)c12 [Example 67, 1-(5-{5,5″,7″-trifluoro-2″,7-dimethyl-1H,2″H-[3,4″-biindazol]-1-yl}pyridin-2-yl)piperidine-4-carboxylic acid] | 102 | 37.0
13 | Cc1cc(F)cc2c(-c3cccc4nn(C)c(F)c34)nn(-c3ccc(N4C[C@@H]5[C@H](C4)[C@H]5C(=O)O)nc3)c12 [Example 10, (1R,5S,6R)-3-(5-{3′,5-Difluoro-2′,7-dimethyl-1H,2′H-[3,4′-biindazol]-1-yl}pyridin-2-yl)-3-azabicyclo[3.1.0]hexane-6-carboxylic acid] | 350 | 33.1
14 | CC(=O)N1CCN(c2ccc(-n3nc(-c4cccc5nn(C)c(F)c45)c4ccc(F)c(C)c43)cn2)CC1 [Example 61, 1-[4-(5-{3″,6-difluoro-2″,7-dimethyl-1H,2″H-[3,4″-biindazol]-1-yl}pyridin-2-yl)piperazin-1-yl]ethan-1-one] | 245 | 30.8
15 | Cc1cccc2c(-c3c(F)cc(F)c4nn(C)cc34)nn(-c3ccc(N4C[C@@H]5[C@H](C4)[C@H]5C(=O)O)nc3)c12 [Example 7, (1R,5S,6S)-3-(5-{5″,7″-Difluoro-2″,7-dimethyl-1H,2″H-[3,4″-biindazol]-1-yl}pyridin-2-yl)-3-zabicyclo[3.1.0]hexane-6-carboxylic acid] | 250 | 35.5
16 | 2-[4-(5-{3″-fluoro-2″,7-dimethyl- 1H,2″H-[3,4″-biindazol]-1-yl}pyridin-2- yl)morpholin-2-yl]acetic acid [Example 18] | 1070 | 28.8
